pIC50: −log10 of the molar value.
Test system: U87MG cells
Assay: Cellular assay for IDH1m inhibitors: inhibition of 2-HG production in U87MG cells (LC-MS)
Assay type: cell-based
Protocol: Cells (HT1080 or U87MG) are grown in T125 flasks in DMEM containing 10% FBS, 1× penicillin/streptomycin and 500 ug/mL G418 (present in U87MG cells only). They are harvested by trypsin and seeded into 96 well white bottom plates at a density of 5000 cell/well in 100 ul/well in DMEM with 10% FBS. […] Cells are incubated overnight at 37° C. in 5% CO2. The next day test compounds are made up at 2× the final concentration and 100 ul are added to each cell well. The final concentration of DMSO is 0.2% and the DMSO control wells are plated in row G. The plates are then placed in the incubator for 48 hours. […] The cell plate is placed back in the incubator for another 24 hours. At 72 hours post compound addition, 10 mL/plate of Promega Cell Titer Glo reagent is thawed and mixed. The cell plate is removed from the incubator and allowed to equilibrate to room temperature. Then 100 ul of Promega Cell Titer Glo reagent is added to each well of media. The cell plate is then placed on an orbital shaker for 10 minutes and then allowed to sit at room temperature for 20 minutes. The plate is then read for luminescence with an integration time of 500 ms.

pIC50 (Homo sapiens, U-87 MG, 48 h) | Compound | pIC50 (inhibition of 2-HG production, U87MG cells, 48 hours)
> 7.00 | O=C(NC1CCC(F)(F)CC1)[C@H](c1ccccc1Cl)N(C(=O)[C@@H]1CCC(=O)N1c1ncccn1)c1cccc(F)c1 [compound 4, (S)—N—((S)-1-(2-chlorophenyl)-2-((4,4-difluorocyclohexyl)amino)-2-oxoethyl)-N-(3-fluoro-phenyl)-5-oxo-1-(pyrimidin-2-yl)pyrrolidine-2-carboxamide] | 
> 7.00 | CN1C[C@@H](C(=O)N(c2cccc(F)c2)[C@H](C(=O)NC2CC(F)(F)C2)c2ccccc2Cl)N(c2cc(C#N)ccn2)C1=O [compound 79] | 
 | (S)—N—((S)-1-(2-Chlorophenyl)-2-(3,3-difluorocyclobutylamino)-2-oxoethyl)-1-(3-cyanophenyl)-N-(1H-indazol-7-yl)-5-oxopyrrolidine-2-carboxamide [compound 186] | > 7.00
